# Assay results as given in the supplement of paper PMC10307832.
# Assays:
# Assay in all cases: relative viability (nuclei count vs DMSO), 5 days (fraction); higher = more cells survive
# [1] = compound: CCN1CCN(c2ccc(Nc3cc(N(C)C(=O)Nc4c(Cl)c(OC)cc(OC)c4Cl)ncn3)cc2)CC1 [BGJ398] + O=C(CCCCCCC(=O)Nc1ccccc1)NO [Vorinostat] (partner 1 µM)
# Summary of the method: (§1)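 Lung cancer cell lines, seeded in 1536-well plates, were treated the following day by pin tool with a single drug or with five library-drug doses (not always all listed) in √10 steps on top of a fixed anchor-drug dose. Cells were fixed and nuclei stained in one step after 5 days, and nuclei were counted. Relative viability is the nuclei count for treated wells divided by that for vehicle wells, reported as medians of duplicate plates.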
# [2] = compound: CCN1CCN(c2ccc(Nc3cc(N(C)C(=O)Nc4c(Cl)c(OC)cc(OC)c4Cl)ncn3)cc2)CC1 [BGJ398] + CC(=O)Nc1cccc(-n2c(=O)n(C3CC3)c(=O)c3c(Nc4ccc(I)cc4F)n(C)c(=O)c(C)c32)c1 [Trametinib] (partner 0.02 µM)
# Summary of the method: as §1
# [3] = compound: CCN1CCN(c2ccc(Nc3cc(N(C)C(=O)Nc4c(Cl)c(OC)cc(OC)c4Cl)ncn3)cc2)CC1 [BGJ398] + CS(=O)(=O)N1CCN(Cc2cc3nc(-c4cccc5[nH]ncc45)nc(N4CCOCC4)c3s2)CC1 [Pictilisib] (partner 1 µM)
# Summary of the method: as §1
# [4] = compound: C1=CC2=NC=CN=C2C=C1/C=C/3\C(=O)NC(=O)S3 + N=C(N)NC(=N)NCCc1ccccc1 [Phenformin] (partner 250 µM)
# Summary of the method: as §1
Cell Line,relative viability ([1]; first compound 0.01 µM),relative viability ([1]; first compound 0.03162 µM),relative viability ([1]; first compound 0.1 µM),relative viability ([1]; first compound 0.3162 µM),relative viability ([1]; first compound 1 µM),relative viability ([2]; first compound 0.01 µM),relative viability ([2]; first compound 0.03162 µM),relative viability ([2]; first compound 0.1 µM),relative viability ([2]; first compound 0.3162 µM),relative viability ([2]; first compound 1 µM),relative viability ([3]; first compound 0.01 µM),relative viability ([3]; first compound 0.03162 µM),relative viability ([3]; first compound 0.1 µM),relative viability ([3]; first compound 0.3162 µM),relative viability ([3]; first compound 1 µM),relative viability ([4]; first compound 0.02 µM),relative viability ([4]; first compound 0.06325 µM),relative viability ([4]; first compound 0.2 µM),relative viability ([4]; first compound 0.6325 µM),relative viability ([4]; first compound 2 µM)
NCI-H1666,1.06,0.963,1.05,0.986,0.916,0.735,0.908,0.965,0.911,0.75,0.511,0.461,0.536,0.374,0.329,0.36,0.481,0.578,0.541,0.548
NCI-H1734,0.794,0.913,0.848,0.841,0.907,0.591,0.657,0.54,0.42,0.381,0.421,0.493,0.451,0.407,0.476,0.392,0.35,0.384,0.343,0.279
NCI-H1755,0.714,0.746,0.827,0.733,0.72,0.723,0.751,0.725,0.638,0.554,0.443,0.446,0.361,0.349,0.285,0.578,0.625,0.588,0.62,0.562
NCI-H1793,0.767,0.574,0.728,0.515,0.421,0.442,0.311,0.273,0.305,0.312,0.296,,0.265,0.203,0.196,0.416,0.32,0.452,0.334,0.322
NCI-H1915,0.466,0.515,0.597,0.54,0.486,0.282,0.31,0.29,0.221,0.17,0.913,0.904,0.906,1.03,0.97,0.354,0.415,0.378,0.371,0.375
NCI-H1944,0.525,0.529,0.55,0.49,0.471,0.371,0.452,0.403,0.387,0.382,0.36,0.348,0.323,0.333,0.311,0.187,0.188,0.199,0.204,0.155
NCI-H1975,0.677,0.794,0.758,0.677,0.672,0.324,0.515,0.391,0.31,0.25,0.296,0.296,0.269,0.321,0.252,0.406,0.448,0.408,0.402,0.312
NCI-H1993,0.968,0.93,0.703,0.691,0.892,0.447,0.524,0.596,0.441,0.595,0.744,0.766,0.722,0.82,0.685,0.492,0.529,0.513,0.557,0.599
